The source of these data is patent US7241905B2, “Dioxin analogues and methods and kits for searching out dioxins-decomposing organisms or enzymes or dioxin-decomposing enzyme genes” (Forestry and Forest Products Research Institute, priority 2001, dated 2007).

What all share (type): cell-based
Assay [1] has as its system Pleurotus pulumonairus. Put plainly: Degradation of dioxin in fungal culture, measured with a dioxin immunoassay kit. To be noted: P. pulumonairus culture; 0.5 ppm; cultured 20 days; control medium without fungus 0%. As for the experimental part: (§1) Pleurotus pulumonairus, which has proven to cause the most intense fluorescence in Examples 3 and 4, was examined for its ability to degrade dioxin.
(§2) As in Examples 3 and 4, Pleurotus pulumonairus was cultured in a culture medium containing glucose and peptone and, on day 7, 2,3,7,8-tetrachlorodioxin was added to the medium at a final concentration of 0.5 ppm. The fungus was subsequently cultured for 20 days. After the culturing period, the culture medium containing the fungus was freeze-dried and was subjected to extraction by refluxing with hexane. Hexane was then removed by distillation and the remaining culture was diluted 200-fold with 200 ml methanol containing 100 ppm Triton X-100. Using a High Performance Dioxin Immunoassay Kit (Cape Technologies, United States) according to the manufacturer's instruction, the concentration of dioxin was measured to determine the degradation rate of dioxin. A control shown in Table 2 is the above-described culture medium with only 2,3,7,8-tetrachlorodioxin added. Fomitopsis palustris was used as a negative control.

Assay [2] relates to Fomitopsis palustris. The description is as above. The conditions noted are these: F. palustris culture (negative control fungus), 0.5 ppm, cultured 20 days, attributed to non-specific binding to fungal cells. Here is the method:
as §1, §2

Assay [3] relates to Pleurotus pulumonairus. Put plainly: Screening of wood-rotting fungi for degradation of the naphthalene-type dioxin analogue (visual fluorescence). To be noted: P. pulumonairus culture; substrate 1 ppm; samples 1, 3 and 5 days after addition; UV 365 nm; compared with the other five fungi. As for the experimental part: Different species of wood-rotting fungi (i.e., Grammothele fuligo WD844, Phanerochaete crassa WD1694, Phanerochaete chrysosporium ME446, Fomitopsis palustris, Coriolus versicolor, and Pleurotus pulumonairus) were used as test subjects and were screened for the ability to degrade the dioxin analogue obtained in Example 2 (naphthalene-type analogue).
(§3) Each subject fungal species, which had been pre-cultured on potato agar and stamped out of the agar using a cork borer, was inoculated onto 10 ml modified NS medium (3% glucose, 1% peptone, inorganic salts, pH5.0) in a 100 ml Erlenmeyer flask and was cultured for 5 to 7 days at 28° C. Subsequently, a 100 μl DMSO solution containing the substrate naphthalene-type dioxin analogue obtained in Example 2 at a final concentration of 1 ppm was added to the culture. The solution was added so that the concentration of DMSO in the medium was 1%. Samples of the culture solution were collected at predetermined time intervals (i.e., 1, 3, and 5 days after the addition of the substrate). To a 100 μportion of each sample, 1.9 ml of an alkaline buffer (100 mM glycine, 100 mM sodium hydroxide, pH10.0) was added. The sample mixtures were then exposed to long-range UV light (365 nm) as excitation light and were visually screened for those emitting fluorescence.

In assay [4] the test system is Phanerochaete chrysosporium ME446. Put plainly: Screening of wood-rotting fungi for degradation of the esculetin-type dioxin analogue (fluorescence of metabolites). To be noted: P. chrysosporium ME446 culture; substrate 1 ppm; day 7; excitation 350 nm, emission 450 nm; control medium without fungus 1370. As for the experimental part: (§4) Different species of wood-rotting fungi (i.e., Grammothele fuligo WD844, Phanerochaete crassa WD1694, Phanerochaete chrysosporium ME446, Fomitopsis palustris, Coriolus versicolor, and Pleurotus pulumonairus) were used as test subjects and were screened for the ability to degrade the dioxin analogue obtained in Example 1 (esculetin-type analogue).
as §3, with “salts, pH 5.0)” for “salts, pH5.0)”, “substrate (esculetin-type” for “substrate naphthalene-type”, “Example 1)” for “Example 2”, “100 μl portion” for “100 μportion”, “hydroxide, pH 10.0)” for “hydroxide, pH10.0)”, “fluorescence. On day 7, the samples were irradiated with excitation light of 350 nm and, using a fluorescence spectrophotometer, the intensity of fluorescence was measured at 450 nm. A control shown in Table 1 is the above-described culture medium with only dioxin analogue (esculetin-type) added.” for “fluorescence.”

For assay [5], the system named is Pleurotus pulumonairus. The description is as above. To be noted: P. pulumonairus culture; substrate 1 ppm; day 7; excitation 350 nm, emission 450 nm; control medium without fungus 1370. Here is the method:
as §4
as §3, with “salts, pH 5.0)” for “salts, pH5.0)”, “substrate (esculetin-type” for “substrate naphthalene-type”, “Example 1)” for “Example 2”, “100 μl portion” for “100 μportion”, “hydroxide, pH 10.0)” for “hydroxide, pH10.0)”, “fluorescence. On day 7, the samples were irradiated with excitation light of 350 nm and, using a fluorescence spectrophotometer, the intensity of fluorescence was measured at 450 nm. A control shown in Table 1 is the above-described culture medium with only dioxin analogue (esculetin-type) added.” for “fluorescence.”

In assay [6] the test system is Fomitopsis palustris. The assay is described as above. To be noted: F. palustris culture; substrate 1 ppm; day 7; excitation 350 nm, emission 450 nm; control medium without fungus 1370. Here is the method:
as §4
as §3, with “salts, pH 5.0)” for “salts, pH5.0)”, “substrate (esculetin-type” for “substrate naphthalene-type”, “Example 1)” for “Example 2”, “100 μl portion” for “100 μportion”, “hydroxide, pH 10.0)” for “hydroxide, pH10.0)”, “fluorescence. On day 7, the samples were irradiated with excitation light of 350 nm and, using a fluorescence spectrophotometer, the intensity of fluorescence was measured at 450 nm. A control shown in Table 1 is the above-described culture medium with only dioxin analogue (esculetin-type) added.” for “fluorescence.”

In the next assay the test system is Coriolus versicolor. Described as above. To be noted: C. versicolor culture; substrate 1 ppm; day 7; excitation 350 nm, emission 450 nm; control medium without fungus 1370. Here is the method: as §4
as §3, with “salts, pH 5.0)” for “salts, pH5.0)”, “substrate (esculetin-type” for “substrate naphthalene-type”, “Example 1)” for “Example 2”, “100 μl portion” for “100 μportion”, “hydroxide, pH 10.0)” for “hydroxide, pH10.0)”, “fluorescence. On day 7, the samples were irradiated with excitation light of 350 nm and, using a fluorescence spectrophotometer, the intensity of fluorescence was measured at 450 nm. A control shown in Table 1 is the above-described culture medium with only dioxin analogue (esculetin-type) added.” for “fluorescence.”

For a further assay, the system named is Grammothele fuligo WD844. Described as above. The conditions noted are these: G. fuligo WD844 culture; substrate 1 ppm; day 7; excitation 350 nm, emission 450 nm; control medium without fungus 1370. Here is the method:
as §4
as §3, with “salts, pH 5.0)” for “salts, pH5.0)”, “substrate (esculetin-type” for “substrate naphthalene-type”, “Example 1)” for “Example 2”, “100 μl portion” for “100 μportion”, “hydroxide, pH 10.0)” for “hydroxide, pH10.0)”, “fluorescence. On day 7, the samples were irradiated with excitation light of 350 nm and, using a fluorescence spectrophotometer, the intensity of fluorescence was measured at 450 nm. A control shown in Table 1 is the above-described culture medium with only dioxin analogue (esculetin-type) added.” for “fluorescence.”

Assay [7] relates to Phanerochaete crassa WD1694. The description is as above. The conditions noted are these: P. crassa WD1694 culture; substrate 1 ppm; day 7; excitation 350 nm, emission 450 nm; control medium without fungus 1370. As for the experimental part: as §4
as §3, with “salts, pH 5.0)” for “salts, pH5.0)”, “substrate (esculetin-type” for “substrate naphthalene-type”, “Example 1)” for “Example 2”, “100 μl portion” for “100 μportion”, “hydroxide, pH 10.0)” for “hydroxide, pH10.0)”, “fluorescence. On day 7, the samples were irradiated with excitation light of 350 nm and, using a fluorescence spectrophotometer, the intensity of fluorescence was measured at 450 nm. A control shown in Table 1 is the above-described culture medium with only dioxin analogue (esculetin-type) added.” for “fluorescence.”

For `Clc1cc2c(cc1Cl)Oc1cc(Cl)c(Cl)cc1O2` [2,3,7,8-tetrachlorodioxin], the figures for the Degradation rate in the assay on Pleurotus pulumonairus [1], in the assay on Fomitopsis palustris [2] and in the assay on Fomitopsis palustris [2] (listed as dioxin) were 31%, 9% and 9%, respectively.
`Clc1cc2c(cc1Cl)Oc1cc3ccccc3cc1O2` [Example 2]: the “Fluorescence emission, visually screened” value in the assay with Pleurotus pulumonairus [3] is on record as “most intense fluorescence emission”.
On to `Cc1cc(=O)oc2cc3c(cc12)Oc1cc(Cl)c(Cl)cc1O3` [Example 1], for which the Fluorecsence intensity in assay [4] worked out at 1619; in the assay on Pleurotus pulumonairus [5] it was 2203; in the assay with Fomitopsis palustris [6], 1314; with Coriolus versicolor, 1601; in the assay with Grammothele fuligo WD844 it was 1639; in assay [7] it was 1419.
